Where “and” joins values, the source holds several entries; their conditions need not be identical. Identical values can stand only once. Toxic doses and inconclusive results are not listed.
Tested on: CD2F1 mice, L1210 leukemia ip, survival T/C
Assay: NCI In Vivo Anticancer Drug Screen. Data for tumor model L1210 Leukemia (intraperitoneal) in CD2F1 (CDF1) mice
Conditions: higher = longer survival
Method in brief: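 Tumor-bearing mice (transplanted tumor) were split into treated and vehicle control groups, and the measured endpoint of each treated group was divided by that of its vehicle controls.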

[1] = endpoint: mean survival time, dose: 100.0 mg/kg/injection, schedule: Q04DX002 (ip), vehicle: saline with Tween-80
[2] = endpoint: mean survival time, dose: 200.0 mg/kg/injection, schedule: Q04DX002 (ip), vehicle: saline with Tween-80
[3] = endpoint: mean survival time, dose: 400.0 mg/kg/injection, schedule: Q04DX002 (ip), vehicle: saline with Tween-80
[4] = endpoint: mean survival time, dose: 100.0 mg/kg/injection, schedule: Q01DX001 (ip), vehicle: saline with Tween-80
[5] = endpoint: mean survival time, dose: 200.0 mg/kg/injection, schedule: Q01DX001 (ip), vehicle: saline with Tween-80
[6] = endpoint: mean survival time, dose: 400.0 mg/kg/injection, schedule: Q01DX001 (ip), vehicle: saline with Tween-80
[7] = endpoint: mean survival time, dose: 100.0 mg/kg/injection, schedule: Q01DX009 (ip), vehicle: saline with Tween-80
[8] = endpoint: mean survival time, dose: 200.0 mg/kg/injection, schedule: Q01DX009 (ip), vehicle: saline with Tween-80
[9] = endpoint: mean survival time, dose: 400.0 mg/kg/injection, schedule: Q01DX009 (ip), vehicle: saline with Tween-80
[10] = endpoint: mean survival time, dose: 100.0 mg/kg/injection, schedule: Q04DX003 (ip), vehicle: saline with Tween-80
[11] = endpoint: mean survival time, dose: 200.0 mg/kg/injection, schedule: Q04DX003 (ip), vehicle: saline with Tween-80
[12] = endpoint: mean survival time, dose: 25.0 mg/kg/injection, schedule: Q01DX009 (ip), vehicle: saline with Tween-80
[13] = endpoint: mean survival time, dose: 400.0 mg/kg/injection, schedule: Q04DX003 (ip), vehicle: saline with Tween-80

In the case of `CN(C)CCOCCOc1ccc(C(C)(C)CC(C)(C)C)cc1`, the T/C (endpoint: mean survival time, dose: 1.5 mg/kg/injection, schedule: Q01DX009 (ip), vehicle: saline with Tween-80) is reported as 105 % of control, the T/C (endpoint: mean survival time, dose: 3.0 mg/kg/injection, schedule: Q01DX009 (ip), vehicle: saline with Tween-80) is reported as 97 % of control and the T/C (endpoint: mean survival time, dose: 6.0 mg/kg/injection, schedule: Q01DX009 (ip), vehicle: saline with Tween-80) is reported as 100 % of control.
For `Nc1ccnc(SCc2ccc3ccccc3c2)n1`, the T/C [1] was 93 % of control, the T/C [2] was 101 % of control and the T/C [3] was 101 % of control.
With `CC(=O)O/N=C(\C(c1ccccc1)c1ccccc1)C1c2ccccc2-c2ccccc21` the T/C [4] was 87 % of control, the T/C [5] was 87 % of control and the T/C [6] was 90 % of control.
With `Nc1nc(=O)n(C2OC(CO)C(O)C2O)c(=O)[nH]1` (configuration not stated) the T/C (endpoint: mean survival time, dose: 3.12 mg/kg/injection, schedule: Q04DX003 (ip), vehicle: saline) was 108 % of control, the T/C (endpoint: mean survival time, dose: 6.25 mg/kg/injection, schedule: Q04DX003 (ip), vehicle: saline) was 97 % of control and the T/C (endpoint: mean survival time, dose: 12.5 mg/kg/injection, schedule: Q04DX003 (ip), vehicle: saline) was 103 % of control. For the same compound, the T/C (endpoint: mean survival time, dose: 25.0 mg/kg/injection, schedule: Q04DX003 (ip), vehicle: saline) was 95 % of control, the T/C (endpoint: mean survival time, dose: 50.0 mg/kg/injection, schedule: Q04DX003 (ip), vehicle: saline) was 92 % of control and the T/C (endpoint: mean survival time, dose: 100.0 mg/kg/injection, schedule: Q04DX003 (ip), vehicle: saline) was 100 % of control. The T/C (endpoint: mean survival time, dose: 200.0 mg/kg/injection, schedule: Q04DX003 (ip), vehicle: saline) was 95 % of control.
`O=C1C=C(C2OC(CO)C(O)C2O)C(=O)N1` (configuration not stated) was tested, and the T/C (endpoint: mean survival time, dose: 5.0 mg/kg/injection, schedule: Q01DX009 (ip), vehicle: saline with Tween-80) was 106 % of control, the T/C (endpoint: mean survival time, dose: 10.0 mg/kg/injection, schedule: Q01DX009 (ip), vehicle: saline with Tween-80) was 111 % of control and the T/C (endpoint: mean survival time, dose: 20.0 mg/kg/injection, schedule: Q01DX009 (ip), vehicle: saline with Tween-80) was 111 % of control.
For `O=C(C(=O)c1ccc(Cl)c(Cl)c1)c1ccc(Cl)c(Cl)c1`, the T/C (endpoint: mean survival time, dose: 100.0 mg/kg/injection, schedule: Q01DX009 (ip), vehicle: Klucel (hydroxypropylcellulose) (HPC)) was 90 % of control, the T/C (endpoint: mean survival time, dose: 200.0 mg/kg/injection, schedule: Q01DX009 (ip), vehicle: Klucel (hydroxypropylcellulose) (HPC)) was 91 % of control and the T/C (endpoint: mean survival time, dose: 400.0 mg/kg/injection, schedule: Q01DX009 (ip), vehicle: Klucel (hydroxypropylcellulose) (HPC)) was 96 % of control.
With `COc1cc(Cl)cc(OC)c1` the T/C [7] was 100 % of control, the T/C [8] was 104 % of control and the T/C [9] was 103 % of control.
In the case of `CC(=O)OCC1OC(n2ccc(-n3cncn3)nc2=O)CC1N=[N+]=[N-]` (configuration not stated), the T/C (endpoint: median survival time, dose: 12.5 mg/kg/injection, schedule: Q01DX005 (ip), vehicle: saline with Tween-80) is reported as 101 % of control, the T/C (endpoint: median survival time, dose: 25.0 mg/kg/injection, schedule: Q01DX005 (ip), vehicle: saline with Tween-80) is reported as 104 % of control and the T/C (endpoint: median survival time, dose: 50.0 mg/kg/injection, schedule: Q01DX005 (ip), vehicle: saline with Tween-80) is reported as 98 % of control. For the same compound, the T/C (endpoint: median survival time, dose: 100.0 mg/kg/injection, schedule: Q01DX005 (ip), vehicle: saline with Tween-80) was 94 % of control and the T/C (endpoint: median survival time, dose: 200.0 mg/kg/injection, schedule: Q01DX005 (ip), vehicle: saline with Tween-80) was 93 % of control.
`CC(C)(C)c1cc(N)cc(C(C)(C)C)c1O` was tested, and the T/C (endpoint: mean survival time, dose: 50.0 mg/kg/injection, schedule: Q04DX002 (ip), vehicle: saline with Tween-80) was 91 % of control, the T/C [1] was 98 % of control and the T/C [2] was 98 % of control.
In the case of `O=C(Nn1c(=O)c(=O)oc2ccccc21)C(F)(F)F`, the T/C [10] is reported as 96 % of control and the T/C [11] is reported as 94 % of control.
In the case of `CC(=O)OC(C)CC(C)(C)OC(C)=O` (configuration not stated), the T/C [4] is reported as 95 % of control, the T/C [5] is reported as 92 % of control and the T/C [6] is reported as 103 % of control.
`Clc1ccc(OCc2sc3ccc(Cl)cc3c2CN2CCOCC2)cc1` was tested, and the T/C [7] was 94 % of control, the T/C [8] was 101 % of control and the T/C [9] was 92 % of control.
With `C#CC1(NC(=O)NC(C)(C)C)CCCCC1` the T/C [7] was 93 % of control and the T/C [8] was 86 % of control.
In the case of `CN(C)N=Nc1c(F)c(F)cc(F)c1F`, the T/C [12] is reported as 102 % of control, the T/C (endpoint: mean survival time, dose: 50.0 mg/kg/injection, schedule: Q01DX009 (ip), vehicle: saline with Tween-80) is reported as 107 % of control and the T/C [8] is reported as 151 % of control. For the same compound, the T/C [9] was 112 % of control.
In the case of `CSc1cc(=O)n(C2OC(COCc3ccccc3)C(OCc3ccccc3)C2OCc2ccccc2)c(=O)[nH]1` (configuration not stated), the T/C (endpoint: mean survival time, dose: 100.0 mg/kg/injection, schedule: Q01DX005 (ip), vehicle: saline) is reported as 111 % of control and the T/C (endpoint: mean survival time, dose: 200.0 mg/kg/injection, schedule: Q01DX005 (ip), vehicle: saline) is reported as 107 % of control.
With `Cn1c(=O)cc(C=Nc2ccc(S(N)(=O)=O)cc2)c2ccccc21` the T/C [7] was 90 % of control, the T/C [8] was 89 % of control and the T/C [9] was 89 % of control.
With `Nc1nc(-c2cc(Br)ccc2N=NN2CCCC2)nc2ccc(Br)cc12` the T/C (endpoint: mean survival time, dose: 100.0 mg/kg/injection, schedule: Q04DX002 (ip), vehicle: Klucel (hydroxypropylcellulose) (HPC)) was 95 % of control, the T/C (endpoint: mean survival time, dose: 200.0 mg/kg/injection, schedule: Q04DX002 (ip), vehicle: Klucel (hydroxypropylcellulose) (HPC)) was 113 % of control and the T/C (endpoint: mean survival time, dose: 400.0 mg/kg/injection, schedule: Q04DX002 (ip), vehicle: Klucel (hydroxypropylcellulose) (HPC)) was 98 % of control.
With `OCC1OCOC2COCOC12` (configuration not stated) the T/C [10] was 95 % of control, the T/C [11] was 98 % of control and the T/C [13] was 101 % of control.
For `N#Cc1cn(C2OC(CO)C(O)C2O)c2ncnc(NC(=O)c3ccccc3)c12` (configuration not stated), the T/C (endpoint: mean survival time, dose: 0.78 mg/kg/injection, schedule: Q01DX001 (ip), vehicle: suspension in saline) was 95 % of control, the T/C (endpoint: mean survival time, dose: 1.56 mg/kg/injection, schedule: Q01DX001 (ip), vehicle: suspension in saline) was 106 % of control and the T/C (endpoint: mean survival time, dose: 3.13 mg/kg/injection, schedule: Q01DX001 (ip), vehicle: suspension in saline) was 110 % of control. For the same compound, the T/C (endpoint: mean survival time, dose: 6.25 mg/kg/injection, schedule: Q01DX001 (ip), vehicle: suspension in saline) was 108 % of control and the T/C (endpoint: mean survival time, dose: 12.5 mg/kg/injection, schedule: Q01DX001 (ip), vehicle: suspension in saline) was 111 % of control.
`O=C1c2ccccc2C(=O)N1CO` was tested, and the T/C [4] was 108 % of control, the T/C [7] was 101 % of control and the T/C [5] was 106 % of control. The T/C [8] was 97 % of control, the T/C [6] was 104 % of control and the T/C [9] was 101 % of control.
In the case of `Nc1nc(F)nc2c1ncn2C1OC(COC=O)C(OC=O)C1O` (configuration not stated) (tested in a mixture with another compound), the T/C (endpoint: mean survival time, dose: 100.0 mg/kg/injection, schedule: Q01DX009 (ip), vehicle: saline) is reported as 205 % of control, the T/C (endpoint: mean survival time, dose: 125.0 mg/kg/injection, schedule: Q01DX009 (ip), vehicle: saline) is reported as 243 % of control and 419 % of control and the T/C (endpoint: mean survival time, dose: 150.0 mg/kg/injection, schedule: Q01DX009 (ip), vehicle: saline with Tween-80) is reported as 512 % of control. The T/C (endpoint: mean survival time, dose: 150.0 mg/kg/injection, schedule: Q01DX009 (ip), vehicle: saline) was 288 % of control and 370 % of control, the T/C (endpoint: mean survival time, dose: 175.0 mg/kg/injection, schedule: Q01DX005 (ip), vehicle: saline with Tween-80) was 163 % of control and the T/C (endpoint: mean survival time, dose: 175.0 mg/kg/injection, schedule: Q01DX009 (ip), vehicle: saline with Tween-80) was 551 % of control. For the same compound, the T/C (endpoint: mean survival time, dose: 175.0 mg/kg/injection, schedule: Q01DX009 (ip), vehicle: saline) was 318 % of control, the T/C (endpoint: mean survival time, dose: 200.0 mg/kg/injection, schedule: Q01DX005 (ip), vehicle: saline with Tween-80) was 179 % of control and the T/C [8] was 298 % of control. For the same compound, the T/C (endpoint: mean survival time, dose: 250.0 mg/kg/injection, schedule: Q01DX009 (ip), vehicle: saline with Tween-80) was 189 % of control.
`N#Cc1c(F)c(F)c(Oc2c(F)c(F)c(F)c(F)c2F)c(F)c1F` was tested, and the T/C [10] was 94 % of control and the T/C [11] was 91 % of control.
For `CCN(CC)C(=S)SCc1c(Cl)c(Cl)c(Cl)c(Cl)c1Cl`, the T/C [1] was 94 % of control, the T/C [2] was 91 % of control and the T/C [3] was 97 % of control.
For `CCCSc1ncnc2nc[nH]c12`, the T/C (endpoint: median survival time, dose: 31.25 mg/kg/injection, schedule: Q01DX009 (ip), vehicle: saline) was 100 % of control, the T/C (endpoint: median survival time, dose: 62.5 mg/kg/injection, schedule: Q01DX009 (ip), vehicle: saline) was 114 % of control and 111 % of control and the T/C (endpoint: median survival time, dose: 125.0 mg/kg/injection, schedule: Q01DX009 (ip), vehicle: saline) was 121 % of control and 111 % of control. For the same compound, the T/C (endpoint: median survival time, dose: 250.0 mg/kg/injection, schedule: Q01DX009 (ip), vehicle: saline) was 122 % of control.
For `O=S(=O)(NC1CCCC2C=CC=CC21)c1ccccc1` (configuration not stated), the T/C [4] was 94 % of control, the T/C [5] was 102 % of control and the T/C [6] was 96 % of control.
In the case of `O=C(c1ccccc1)c1cc(Cl)ccc1N1C(=O)C=CC1=O`, the T/C (endpoint: mean survival time, dose: 6.25 mg/kg/injection, schedule: Q01DX009 (ip), vehicle: saline with Tween-80) is reported as 94 % of control, the T/C (endpoint: mean survival time, dose: 12.5 mg/kg/injection, schedule: Q01DX009 (ip), vehicle: saline with Tween-80) is reported as 95 % of control and the T/C [12] is reported as 100 % of control.
For `O=[N+]([O-])C1(Br)C(c2ccccc2)C=CC(c2ccccc2)C1c1ccccc1` (configuration not stated), the T/C [10] was 95 % of control, the T/C [11] was 95 % of control and the T/C [13] was 91 % of control.
